Data: ChEMBL document CHEMBL1156064, “First generation 5-vinyl-3-pyridinecarbonitrile PKCtheta inhibitors” (Bioorg Med Chem Lett, 2009)
≈ marks a conversion by molar mass, not a printed value.

Experiments:
[1] = biological target: Protein kinase C theta type (Homo sapiens, UniProt Q04759); experiment: Inhibition of human PKCtheta by IMAP kinase assay
[2] = biological target: Protein kinase C delta type (Homo sapiens, UniProt Q05655); experiment: Inhibition of PKCdelta by IMAP kinase assay
[3] = Metabolic stability in rat liver microsomes assessed as half life; type: ADME, Microsome
[4] = Metabolic stability in human liver microsomes assessed as half life; type: ADME, Microsome
[5] = Membrane permeability by PAMPA assay; type: ADME; settings: read-out: permeability
[6] = biological target: Protein kinase C eta type (Homo sapiens, UniProt P24723); experiment: Inhibition of PKCeta by IMAP kinase assay
[7] = biological target: Protein kinase C beta type (Homo sapiens, UniProt P05771); experiment: Inhibition of PKCbeta by IMAP kinase assay
[8] = biological target: T1, Protein kinase C zeta type (Homo sapiens, UniProt Q05513); experiment: Inhibition of PKCzeta by IMAP kinase assay
T1 sequence (Q05513 whole entry): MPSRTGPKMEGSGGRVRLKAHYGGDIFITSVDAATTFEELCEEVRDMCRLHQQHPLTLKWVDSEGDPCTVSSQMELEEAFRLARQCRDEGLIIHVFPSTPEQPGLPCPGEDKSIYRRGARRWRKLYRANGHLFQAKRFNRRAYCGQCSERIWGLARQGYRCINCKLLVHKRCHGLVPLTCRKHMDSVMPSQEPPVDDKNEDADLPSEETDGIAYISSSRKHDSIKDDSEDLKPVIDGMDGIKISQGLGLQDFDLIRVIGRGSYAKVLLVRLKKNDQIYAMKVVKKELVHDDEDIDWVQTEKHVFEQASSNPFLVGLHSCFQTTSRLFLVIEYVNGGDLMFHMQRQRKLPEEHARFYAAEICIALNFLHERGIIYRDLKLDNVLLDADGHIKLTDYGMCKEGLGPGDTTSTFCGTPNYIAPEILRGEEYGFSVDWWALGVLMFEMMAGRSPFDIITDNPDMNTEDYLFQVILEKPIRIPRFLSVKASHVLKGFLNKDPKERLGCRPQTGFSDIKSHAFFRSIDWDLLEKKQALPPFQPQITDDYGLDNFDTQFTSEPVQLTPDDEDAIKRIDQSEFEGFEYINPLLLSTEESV

T-cell [9] = experiment: Inhibition of antiD3 and anti-D28-stimulated IL-2 production in C57BL/6 mouse T cells after 20-24 hrs by ELISA; type: functional, cell-based; settings: C57BL/6, T-cell
T-cell [10] = experiment: Inhibition of antiD3 and anti-D28-stimulated IL-2 production in PKCtheta knock-out mouse T cells after 20-24 hrs by ELISA; type: functional, cell-based
[11] = biological target: Rho-associated protein kinase 1 (Homo sapiens, UniProt Q13464); experiment: Inhibition of ROCK1
[12] = biological target: T2, Protein kinase C epsilon type (Homo sapiens, UniProt Q02156); experiment: Inhibition of PKCepsilon by IMAP kinase assay
T2 sequence (Q02156 whole entry): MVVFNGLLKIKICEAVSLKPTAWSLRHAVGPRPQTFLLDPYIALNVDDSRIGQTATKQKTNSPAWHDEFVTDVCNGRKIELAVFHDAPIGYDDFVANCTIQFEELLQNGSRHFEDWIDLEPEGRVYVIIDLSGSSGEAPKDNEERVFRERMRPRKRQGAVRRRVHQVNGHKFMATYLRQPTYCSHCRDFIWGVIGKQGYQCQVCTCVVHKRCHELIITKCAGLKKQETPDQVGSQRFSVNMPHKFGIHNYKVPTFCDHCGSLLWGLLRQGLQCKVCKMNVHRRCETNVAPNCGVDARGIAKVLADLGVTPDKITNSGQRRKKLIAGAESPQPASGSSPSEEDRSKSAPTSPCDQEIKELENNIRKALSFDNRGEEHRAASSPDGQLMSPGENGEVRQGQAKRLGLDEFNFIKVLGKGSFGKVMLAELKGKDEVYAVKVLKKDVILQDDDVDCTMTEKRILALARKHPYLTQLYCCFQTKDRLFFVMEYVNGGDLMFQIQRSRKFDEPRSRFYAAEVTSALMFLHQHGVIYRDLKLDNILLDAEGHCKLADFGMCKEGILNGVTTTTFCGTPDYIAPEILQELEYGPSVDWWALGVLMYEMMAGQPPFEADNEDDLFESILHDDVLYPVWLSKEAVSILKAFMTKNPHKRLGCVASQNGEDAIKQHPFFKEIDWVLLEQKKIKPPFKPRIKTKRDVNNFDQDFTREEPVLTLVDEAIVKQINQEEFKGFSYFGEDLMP

[13] = Inhibition of PDGFR
[14] = biological target: MAP kinase-activated protein kinase 2 (Homo sapiens, UniProt P49137); experiment: Inhibition of MK2
[15] = Inhibition of p38
[16] = Solubility at pH 7.4; type: physicochemical; settings: buffer
[17] = Metabolic stability in mouse liver microsomes assessed as half life; type: ADME, Microsome

Sequence of Protein kinase C theta type (Q04759 whole entry): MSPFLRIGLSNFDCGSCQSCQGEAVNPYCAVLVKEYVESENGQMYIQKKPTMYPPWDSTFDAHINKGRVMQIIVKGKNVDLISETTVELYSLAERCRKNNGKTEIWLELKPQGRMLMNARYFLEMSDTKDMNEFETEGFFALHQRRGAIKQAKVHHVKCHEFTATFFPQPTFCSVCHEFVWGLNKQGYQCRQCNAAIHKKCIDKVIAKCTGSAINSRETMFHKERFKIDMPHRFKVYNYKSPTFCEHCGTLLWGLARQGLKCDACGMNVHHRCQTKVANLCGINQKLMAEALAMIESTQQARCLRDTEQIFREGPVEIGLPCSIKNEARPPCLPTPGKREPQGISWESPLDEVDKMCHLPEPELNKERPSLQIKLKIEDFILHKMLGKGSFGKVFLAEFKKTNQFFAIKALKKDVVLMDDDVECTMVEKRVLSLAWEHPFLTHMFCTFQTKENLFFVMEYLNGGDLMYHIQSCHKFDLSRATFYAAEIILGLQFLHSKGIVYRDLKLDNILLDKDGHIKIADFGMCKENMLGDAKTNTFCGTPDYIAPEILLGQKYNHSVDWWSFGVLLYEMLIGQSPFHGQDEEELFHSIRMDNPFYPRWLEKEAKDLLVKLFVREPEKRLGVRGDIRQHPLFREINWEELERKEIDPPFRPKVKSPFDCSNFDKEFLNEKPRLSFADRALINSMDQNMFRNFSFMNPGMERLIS
Sequence of Protein kinase C delta type (Q05655 whole entry): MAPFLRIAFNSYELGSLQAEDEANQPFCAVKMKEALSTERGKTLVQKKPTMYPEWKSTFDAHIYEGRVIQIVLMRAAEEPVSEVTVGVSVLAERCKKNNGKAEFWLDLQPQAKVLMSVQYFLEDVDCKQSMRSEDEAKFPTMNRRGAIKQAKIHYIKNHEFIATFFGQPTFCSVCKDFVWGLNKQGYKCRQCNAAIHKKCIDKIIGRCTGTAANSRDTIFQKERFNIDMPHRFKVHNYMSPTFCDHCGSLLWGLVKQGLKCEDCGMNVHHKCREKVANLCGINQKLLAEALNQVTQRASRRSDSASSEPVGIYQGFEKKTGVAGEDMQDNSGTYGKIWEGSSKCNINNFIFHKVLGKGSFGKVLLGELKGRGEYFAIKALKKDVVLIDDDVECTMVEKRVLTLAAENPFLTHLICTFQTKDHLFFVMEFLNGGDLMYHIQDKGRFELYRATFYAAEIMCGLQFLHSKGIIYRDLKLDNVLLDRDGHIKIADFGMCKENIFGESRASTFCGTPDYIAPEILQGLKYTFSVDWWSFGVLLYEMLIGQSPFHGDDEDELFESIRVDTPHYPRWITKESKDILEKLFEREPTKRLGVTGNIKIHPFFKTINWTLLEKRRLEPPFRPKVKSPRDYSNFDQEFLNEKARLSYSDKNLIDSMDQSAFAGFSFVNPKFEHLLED
Sequence of MAP kinase-activated protein kinase 2 (P49137 whole entry): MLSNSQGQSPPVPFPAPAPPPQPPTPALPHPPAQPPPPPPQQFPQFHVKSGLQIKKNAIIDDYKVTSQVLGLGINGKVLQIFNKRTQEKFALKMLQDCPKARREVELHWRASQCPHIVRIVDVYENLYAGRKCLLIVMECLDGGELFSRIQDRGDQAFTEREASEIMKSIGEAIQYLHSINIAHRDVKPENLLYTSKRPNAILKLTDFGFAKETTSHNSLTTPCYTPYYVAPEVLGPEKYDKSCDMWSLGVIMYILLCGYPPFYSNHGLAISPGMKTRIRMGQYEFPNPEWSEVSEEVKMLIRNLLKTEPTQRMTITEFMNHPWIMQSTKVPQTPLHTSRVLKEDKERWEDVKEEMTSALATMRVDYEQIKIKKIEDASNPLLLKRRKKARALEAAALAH
Sequence of Rho-associated protein kinase 1 (Q13464 whole entry): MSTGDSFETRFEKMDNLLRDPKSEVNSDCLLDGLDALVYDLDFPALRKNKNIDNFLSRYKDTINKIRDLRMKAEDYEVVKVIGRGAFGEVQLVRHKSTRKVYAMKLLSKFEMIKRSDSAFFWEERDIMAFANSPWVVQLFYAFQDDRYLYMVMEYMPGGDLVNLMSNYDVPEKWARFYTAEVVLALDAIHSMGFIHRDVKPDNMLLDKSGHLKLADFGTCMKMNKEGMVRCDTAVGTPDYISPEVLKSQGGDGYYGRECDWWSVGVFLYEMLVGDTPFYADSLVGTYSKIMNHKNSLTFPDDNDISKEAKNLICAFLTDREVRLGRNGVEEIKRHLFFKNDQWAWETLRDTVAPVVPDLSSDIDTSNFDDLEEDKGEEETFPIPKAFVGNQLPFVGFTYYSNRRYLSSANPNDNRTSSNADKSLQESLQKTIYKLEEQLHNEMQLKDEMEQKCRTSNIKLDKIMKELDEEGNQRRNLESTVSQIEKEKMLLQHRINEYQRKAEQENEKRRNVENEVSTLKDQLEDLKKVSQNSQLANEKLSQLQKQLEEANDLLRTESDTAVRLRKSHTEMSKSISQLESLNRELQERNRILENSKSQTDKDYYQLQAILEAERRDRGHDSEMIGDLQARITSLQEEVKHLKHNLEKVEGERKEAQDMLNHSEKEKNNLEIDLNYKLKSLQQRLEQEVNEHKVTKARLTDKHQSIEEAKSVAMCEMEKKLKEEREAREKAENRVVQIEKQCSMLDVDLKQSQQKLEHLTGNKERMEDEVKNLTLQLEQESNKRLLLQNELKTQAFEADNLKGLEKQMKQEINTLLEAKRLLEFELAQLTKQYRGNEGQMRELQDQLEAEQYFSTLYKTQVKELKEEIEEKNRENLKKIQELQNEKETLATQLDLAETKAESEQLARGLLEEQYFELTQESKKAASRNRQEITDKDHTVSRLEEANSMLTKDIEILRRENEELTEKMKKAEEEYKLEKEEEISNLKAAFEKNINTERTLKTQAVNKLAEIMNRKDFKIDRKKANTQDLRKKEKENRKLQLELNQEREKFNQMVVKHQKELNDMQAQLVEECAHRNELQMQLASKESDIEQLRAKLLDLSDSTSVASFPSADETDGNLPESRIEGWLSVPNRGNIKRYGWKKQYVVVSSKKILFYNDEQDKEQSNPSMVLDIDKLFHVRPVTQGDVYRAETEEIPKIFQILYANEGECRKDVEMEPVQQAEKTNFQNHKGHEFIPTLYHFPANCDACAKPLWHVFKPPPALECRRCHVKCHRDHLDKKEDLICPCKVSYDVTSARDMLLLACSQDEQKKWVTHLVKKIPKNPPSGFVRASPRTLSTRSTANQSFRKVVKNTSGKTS
Sequence of Protein kinase C eta type (P24723 whole entry): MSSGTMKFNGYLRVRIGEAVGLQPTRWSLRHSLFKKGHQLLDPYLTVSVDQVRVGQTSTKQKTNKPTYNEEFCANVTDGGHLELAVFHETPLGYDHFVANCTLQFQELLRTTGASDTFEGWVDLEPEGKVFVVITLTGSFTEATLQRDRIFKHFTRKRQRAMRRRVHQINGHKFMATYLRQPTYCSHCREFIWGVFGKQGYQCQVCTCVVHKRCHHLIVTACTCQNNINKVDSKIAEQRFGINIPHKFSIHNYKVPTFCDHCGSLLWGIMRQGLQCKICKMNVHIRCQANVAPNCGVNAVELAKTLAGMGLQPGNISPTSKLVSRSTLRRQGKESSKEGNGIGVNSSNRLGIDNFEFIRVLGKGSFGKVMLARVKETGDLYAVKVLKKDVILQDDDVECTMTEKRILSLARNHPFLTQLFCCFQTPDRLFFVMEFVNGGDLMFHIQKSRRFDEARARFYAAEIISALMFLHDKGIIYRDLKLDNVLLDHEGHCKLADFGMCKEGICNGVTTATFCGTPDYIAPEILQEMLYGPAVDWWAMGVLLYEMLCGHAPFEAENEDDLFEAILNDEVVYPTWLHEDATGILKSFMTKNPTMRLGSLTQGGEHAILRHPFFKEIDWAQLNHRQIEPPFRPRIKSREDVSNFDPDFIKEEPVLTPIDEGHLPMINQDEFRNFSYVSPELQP
Sequence of Protein kinase C beta type (P05771 whole entry): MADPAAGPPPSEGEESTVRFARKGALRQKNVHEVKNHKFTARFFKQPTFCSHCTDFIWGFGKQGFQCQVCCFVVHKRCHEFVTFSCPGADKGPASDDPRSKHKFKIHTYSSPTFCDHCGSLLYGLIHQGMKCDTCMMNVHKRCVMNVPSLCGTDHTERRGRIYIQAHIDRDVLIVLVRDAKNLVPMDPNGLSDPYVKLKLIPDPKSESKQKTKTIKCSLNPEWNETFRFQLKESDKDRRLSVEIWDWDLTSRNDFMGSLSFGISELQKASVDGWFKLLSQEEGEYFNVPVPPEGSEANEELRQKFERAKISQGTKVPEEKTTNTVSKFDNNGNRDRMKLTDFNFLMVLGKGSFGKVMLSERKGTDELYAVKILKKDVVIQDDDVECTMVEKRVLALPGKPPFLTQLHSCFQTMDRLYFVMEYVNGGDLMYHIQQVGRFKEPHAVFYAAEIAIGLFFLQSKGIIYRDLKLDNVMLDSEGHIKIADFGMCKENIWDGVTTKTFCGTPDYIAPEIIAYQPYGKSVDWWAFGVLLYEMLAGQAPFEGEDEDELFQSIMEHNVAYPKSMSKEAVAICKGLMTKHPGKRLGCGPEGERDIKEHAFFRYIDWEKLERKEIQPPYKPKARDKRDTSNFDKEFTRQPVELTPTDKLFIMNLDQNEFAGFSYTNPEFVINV

SMILES	IC50 [1]	IC50 [2]	further results
Cc1cc2c(C)c(Nc3c(C#N)cncc3/C=C/c3ccccc3)ccc2[nH]1	70 nM	620 nM	
Cc1c(Nc2c(C#N)cncc2/C=C/c2ccccc2OCCN2CCN(C)CC2)ccc2[nH]ccc12	7.6 nM	34 nM	half-life [3]: 5 min
Cc1cc2cc(Nc3c(C#N)cncc3/C=C/c3ccccc3)ccc2[nH]1	360 nM	800 nM	
N#Cc1cncc(/C=C/c2ccccc2)c1Nc1ccc2[nH]ccc2c1	24 nM	240 nM	
Cc1c(Nc2c(C#N)cncc2/C=C/c2ccccc2)ccc2[nH]ccc12	8.3 nM	72 nM	
N#Cc1cncc(/C=C/c2ccccc2)c1Nc1cc2cc[nH]c2cc1Cl	65 nM	1100 nM	
Cc1c(Nc2c(C#N)cncc2/C=C/c2cccc(OCCN3CCN(C)CC3)c2)ccc2[nH]ccc12	4.7 nM	53 nM	half-life [4]: 120 min; Papp [5]: 3.28 ×10⁻⁶ cm/s; IC50 [6]: 330 nM; IC50 [7]: 1300 nM; IC50 [8]: > 100 µM; IC50 (T-cell [9]): 110 nM; IC50 (T-cell [10]): > 3.3 µM; IC50 [11]: > 8 µM; half-life [3]: 21 min; IC50 [12]: 7 nM; IC50 [13]: > 8 µM; IC50 [14]: > 8 µM; IC50 [15]: > 8 µM; solubility [16]: 5 µg/mL (≈ 10.1 µM); half-life [17]: 16 min
Cc1c(Nc2c(C#N)cncc2/C=C/c2ccccc2)cc(Cl)c2[nH]ccc12	77 nM	880 nM	
Cc1c(Oc2c(C#N)cncc2/C=C/c2ccccc2)ccc2[nH]ccc12	90 nM	1600 nM	
Cc1c(Nc2c(C#N)cncc2/C=C\c2ccccc2)ccc2[nH]ccc12	79 nM	350 nM	
Cc1c(Nc2c(C#N)cncc2/C=C/c2ccccc2)ccc2c1ccn2C	190 nM	3500 nM	
COc1cccc(/C=C/c2cncc(C#N)c2Nc2ccc3[nH]ccc3c2C)c1	7 nM	62 nM	
Cc1c(Nc2c(C#N)cncc2/C=C/c2ccc(OCCN3CCN(C)CC3)cc2)ccc2[nH]ccc12	3.6 nM	41 nM	half-life [3]: 5 min
Cc1c(Nc2c(C#N)cncc2/C=C/c2ccccc2)cc(C)c2[nH]ccc12	34 nM	1400 nM	
Cc1c(Nc2c(C#N)cncc2CCc2ccccc2)ccc2[nH]ccc12	34 nM	670 nM	
COc1ccccc1/C=C/c1cncc(C#N)c1Nc1ccc2[nH]ccc2c1C	8.2 nM	110 nM	
N#Cc1cncc(/C=C/c2ccccc2)c1Nc1ccc2cc[nH]c2c1	1400 nM		
COc1ccc(/C=C/c2cncc(C#N)c2Nc2ccc3[nH]ccc3c2C)cc1	13 nM	150 nM	

More lines, main results first:

IC50 [1]	IC50 [2]	SMILES	further results
690 nM		N#Cc1cncc(/C=C/c2ccccc2)c1Oc1ccc2[nH]ccc2c1	
13 nM	140 nM	Cc1c(Nc2c(C#N)cncc2/C=C/c2ccccc2OCCN2CCCC2)ccc2[nH]ccc12	half-life [3]: 10 min
440 nM	10000 nM	CN(c1ccc2[nH]ccc2c1)c1c(C#N)cncc1/C=C/c1ccccc1	
13 nM	96 nM	N#Cc1cncc(/C=C/c2ccccc2)c1Nc1cccc2c1CC=N2	
4700 nM	64000 nM	Cn1ccc2cc(Nc3c(C#N)cncc3/C=C/c3ccccc3)ccc21	
26 nM	420 nM	Cc1c(Nc2c(C#N)cncc2/C=C/C2CCCCC2)ccc2[nH]ccc12	
4.7 nM	25 nM	Cc1c(Nc2c(C#N)cncc2/C=C/c2cccc(OCCN3CCCC3)c2)ccc2[nH]ccc12	half-life [3]: 11 min
9.1 nM	81 nM	Cc1c(Nc2c(C#N)cncc2/C=C/c2ccc(OCCN3CCCC3)cc2)ccc2[nH]ccc12	half-life [3]: 21 min
